Assay type in all cases: in vivo, Arabidopsis thaliana
The subject of assay [1] is rd29A, rd29B and rd22 water stress marker genes. Description: RT-PCR expression of rd29A, rd29B and rd22 water stress marker genes after exogenous ABA application. The text has this:
A possibility that would explain the greater sensitivity to ABA of the ocp3 mutant as well as the increase in drought resistance could be that the mutation in said gene had caused a constitutive activation of the ABA-dependent signaling pathway and the final result of which would be the constitutive expression of dehydration-responsive genes which increase the protection levels against the damage caused by water stress and therefore this would aid the plants in better resisting this type of stress. For the purpose of studying this possibility, a molecular analysis was conducted, determining the expression levels (measured as accumulation of the corresponding mRNA by RT-PCR) of several signaling marker genes in response to dehydration, both of those genes activated by the ABA-dependent route, and of those genes the activation of which is independent of the ABA route. The rd29B and rd22 genes were used as markers of the ABA-dependent pathway, whereas rd29A was used for the ABA-independent pathway. The levels of the transcripts of these genes at different times (0, 1 h, 3 h and 6 h) were analyzed after incubating the plants in a liquid medium with 150 μM ABA.
FIG. 3. Analysis of the expression by RT-PCR of rd29A, rd29B and rd22 water stress marker genes in Col-0 and ocp3 plants, using the ELF1α gene as a control. The plants were grown in MS-Agar plates for 3 weeks and the RNAs were extracted from samples collected at different times. (A) Expression levels after exogenous 150 μM ABA application in a liquid culture. (B) Expression levels 10 minutes, 30 minutes and 1, 3 and 6 hours after subjecting the plants to dehydration.
FIG. 9. Comparison of the induction by ABA of the expression of rd29A, rd29B and rd22 water stress marker genes assayed by RT-PCR in RNA samples from Col-0, ocp3, aba2-1, abi1-1 and ocp3abi1-1 plants, and using the accumulation of the mRNA corresponding to the ELF1α gene as a control. The procedure was the same as that described for FIG. 3. […]
The semi-quantitative RT-PCR technique was used to determine the relative amounts of some mRNAs of interest. […]

For another assay, the system named is ocp3 plants. Description: Effect of exogenous ABA on development of seedlings in MS-Agar plates. The conditions noted are these: 0.8 μM ABA in MS-Agar; ocp3 mutant vs wt (Col-0); 17 days after seeding. Here is the method: To study any possible effect of exogenous ABA application in the development of ocp3 plants, seeds of said mutant were seeded in MS-Agar plates, as well as in MS-Agar plates supplemented with an ABA concentration of 0.8 μM, and always using the wt wild type genotype (Col-0) as control plants in these experiments. […] Based on this it could therefore be deduced that the loss of function which can be attributed to the ocp3 mutation yields a hypersusceptibility to the ABA hormone and therefore the normal function of the OCP3 gene would be compatible with that of regulating any repression aspect of the ABA hormone transduction pathway, either in the sense of its synthesis or in that of its correct perception.
FIG. 2. Effect of ABA in the development of ocp3 plants compared with wt (Col-0) plants. The seeds were sterilized, stratified at 4° C. for 4 days and seeded in plates with MS-Agar medium and MS-Agar supplemented with 0.8 μM ABA. The photographs were taken 17 days after the seeding.
The plants were grown in Jiffy-7 compacted substrate (Clause-Tezier Iberica, Valencia, Spain) at 23° C. with a photoperiod of 10 hours of light and 14 of darkness. For the in vitro culture, the seeds were sterilized by adding 70% ethanol for 2 minutes and commercial 30% lye for 7 minutes. Subsequently, 5-7 washes with sterile water were performed and they were stratified at 4° C. for 4 days. […]

In assay [2] the test system is stomata of ocp3 and wt plants. Kind of assay: Measurement of the stomatal closure induced by ABA in epidermal peelings of rosette leaves. The settings on record: 100 μM ABA. The text has this: There are different stimuli modifying the rate as well as the degree of opening/closure of the stomata and, among them, subjecting the plants to drought or depriving them of light should be emphasized, and both signalings are always directly related to an increase in the endogenous levels of ABA, a hormone determining the closure of stomata under inductive or stress conditions. To determine if there is any defect in ABA-mediated signaling in the ocp3 mutant, the decision was made to compare the stomatal closure rate between ocp3 plants and Col-0 plants, occurring after direct ABA application in epidermal samples (peelings) obtained from rosette leaves. […] Therefore, it is inferred from these experiments that the ocp3 mutant is more sensitive to the ABA hormone and this translates into an early response to this hormone which is manifested with an accelerated stomatal closure. The greater susceptibility to ABA is consistent with the hypersusceptibility shown by the seedlings when they are germinated and grown in the presence of ABA (FIG. 2). Furthermore, said hypersusceptibility to ABA could explain the drought resistance phenotype, since drought causes increases in ABA synthesis which in turn lead to the closure of stomata to prevent the loss of water by evapotranspiration. Thus, since the ocp3 mutant is more sensitive to ABA, it would accelerate the closure of its stomata with a drought signal and this promptness in the response could provide it with an advantage to resist the metabolic drawbacks derived from water privation better or for more time.
FIG. 7. Measurement of the stomatal closure induced by ABA (100 μM) in ocp3 and wt plants. Rosette leaves were detached from 6 week-old plants of the ocp3 and Col-0 genotypes and incubated in a solution (10 mM Mes-KOH pH 6.15 and 30 mM KCl) for 2 hours to induce the opening of the stomata. Then, 100 μM ABA was added to induce the closure of the stomata. The opening of the ostiole was measured at the different times indicated in epidermal peelings of the leaves with the different genetic backgrounds. […]

A further assay deals with OCP3 gene. Kind of assay: Real-time PCR relative expression of OCP3 after exogenous ABA application. The settings on record: 150 μM ABA; wt plants; evident at very short times. The method, then: In both drought and dehydration conditions, plants respond by increasing the endogenous levels of ABA, which involves the activation of a signaling cascade having as a result a series of changes at the transcriptomic level. To study the possible effect that ABA may have in transcriptional OCP3 regulation in wt plants, the relative levels of the mRNA corresponding to the OCP3 gene is measured by quantitative RT-PCR (q-RT-PCR) at different times after applying ABA, as well as after subjecting the plants to dehydration stress. The ABI1 gene was used as a control in the experiments, the expression of which is known to be induced in response to both ABA and dehydration. As can be observed in FIG. 4, both as a result of applying 150 μM ABA and after imposing a water stress to the seedlings, a sharp drop of the accumulation levels of the transcript corresponding to the OCP3 gene is observed. Said repression in the expression of the OCP3 gene as a result of the treatment with ABA or of dehydration, already becomes evident at very short times. […]
FIG. 4. Relative expression levels of OCP3 and ABI1 in response to exogenous 150 μM ABA application (A) and dehydration (B) measured by real-time PCR. […]
The samples were analyzed in triplicate and the real-time PCR reactions were performed using Sybr Green PCR Master Mix (Applied Biosystems) in an ABI PRISM 7000 sequence detector. […]

Where [3] appears, read: ABA application, abi1-1 and ocp3 abi1-1 double mutant, compared with wt or ocp3.

Regarding `CC1=CC(=O)CC(C)(C)[C@@]1(O)/C=C/C(C)=C\C(=O)O` [ABA, abscisic acid], in assay [1] (150 μM ABA, liquid medium, 0, 1 h, 3 h, 6 h), the “induction and accumulation levels of rd29A, rd29B, rd22 transcripts, wt (Col-0) vs ocp3” value was “no observable differences”. For the same molecule, in assay [1] (setting [3]), the “induction of the expression of the rd29A gene” value is listed as “greatly reduced”; the “induction of the expression of the rd29B and rd22 genes” value is reported as “virtually annulled”. Moreover, the “development of the ocp3 mutant in the presence of ABA” value in the assay with ocp3 plants is on record as “arrested in the first stages of germination”. Further, the “closure of the stomata in ocp3 plants” value in assay [2] (30 minutes after applying, ocp3 plants) is on record as “accelerated closure”. The “closure of the stomata in wt control” value in assay [2] (30 minutes after applying, wt (Col-0)) is “has still not started the process for closing its stomata”. For the same molecule, the “state of the stomata of ocp3 and wt plants” value in assay [2] (2 hours after applying, ocp3 and wt plants) is recorded as “completely closed”. Further, the “accumulation levels of the OCP3 transcript” value in the assay on OCP3 gene is reported as “sharp drop”.

The record behind these values is patent US20090328246A1, “USE OF THE ocp3 MUTATION TO REGULATE DROUGHT RESISTANCE IN PLANTS” (Calantia Biotech, S.L., priority 2006, published 2009).
